Assays:
[1] = tested on: control sera (pooled serum of ten healthy LUMC hospital workers; commercial negative donor pooled serum from the Dutch bloodbank); assay type: binding, human; parameters: Binding of Control serum LUMC to linear peptides / Binding of Control serum Blood-bank to linear peptides / Binding of Control serum LUMC to looped peptides / Binding of Control Serum Blood-Bank to Looped peptides / Binding of Control serum LUMC to linear peptides of the protein M of SARS-CoV Urbani / Binding of Control serum Blood-bank to linear peptides of the protein M of SARS-CoV Urbani / Binding of Control serum LUMC to looped peptides of the protein M of SARS-CoV Urbani / Binding of Control Serum Blood-Bank to Looped peptides of the protein M of SARS-CoV Urbani: unit not given here
[2] = tested on: rabbit serum obtained by immunizing a rabbit with the SARS-CoV strain Frankfurt 1; assay type: binding; parameters: Binding of a rabbit serum to linear peptides / Binding of a rabbit serum to looped peptides / Rabbit serum linear peptides / Rabbit serum looped peptides / Binding of a rabbit serum to linear peptides of protein N of SARS-CoV Urbani (Rabbit serum linear peptides) / Binding of a rabbit serum to looped/cyclic peptides of protein N of SARS-CoV Urbani (Rabbit serum looped peptides): unit not given here
[3] = tested on: antibodies in sera from SARS patients (sera 1a, 1b, 2, 6, 37, 62, London, SARS-yellow, SARS-green); assay type: binding, human; parameters: Binding of serum 6 to linear peptides of protein X1 of SARS-CoV Urbani / Binding of serum 37 to linear peptides of protein X1 of SARS-CoV Urbani / Binding of serum 6 to looped/cyclic peptide (PEPSCAN-ELISA) / Binding of serum 37 to looped/cyclic peptide (PEPSCAN-ELISA) / Binding of serum 37 to looped/cyclic peptides of protein X1 of SARS-CoV Urbani / Binding of serum 6 to linear peptides of protein X2 / Binding of serum 37 to linear peptides of protein X2 / Binding of serum 37 to looped/cyclic peptides of protein X2 of SARS-CoV Urbani / Binding of serum 6 to linear peptides of protein M of SARS-CoV Urbani / Binding of serum 37 to linear peptides of protein M of SARS-CoV Urbani / Binding of serum 6 to looped/cyclic peptides of protein M of SARS-CoV Urbani / Binding of serum 37 to looped/cyclic peptides of protein M of SARS-CoV Urbani / Binding of serum 6 to linear peptides of protein X3 of SARS-CoV Urbani / Binding of serum 37 to linear peptides of protein X3 of SARS-CoV Urbani / Binding of serum 37 to looped/cyclic peptides of protein X3 of SARS-CoV Urbani / Binding of serum 6 to linear peptides of protein X4 of SARS-CoV Urbani / Binding of serum 37 to linear peptides of protein X4 of SARS-CoV Urbani / Binding of serum 37 to looped/cyclic peptides of protein X4 of SARS-CoV Urbani / Binding of serum 6 to linear peptides of protein X5 of SARS-CoV Urbani / Binding of serum 37 to linear peptides of protein X5 of SARS-CoV Urbani / Binding of serum 37 to looped/cyclic peptides of protein X5 of SARS-CoV Urbani / Binding of serum 6 to linear peptides of protein N of SARS-CoV Urbani / Binding of serum 37 to linear peptides of protein N of SARS-CoV Urbani / Binding of serum 6 to linear peptide (PEPSCAN-ELISA) / Binding of serum 1a to looped/cyclic peptides of protein N of SARS-CoV Urbani / Binding of serum 1b to looped/cyclic peptides of protein N of SARS-CoV Urbani / Binding of serum 2 to looped/cyclic peptides of protein N of SARS-CoV Urbani / Binding of serum 6 to looped/cyclic peptides of protein N of SARS-CoV Urbani / Binding of serum 37 to looped/cyclic peptides of protein N of SARS-CoV Urbani / Binding of serum 62 to looped/cyclic peptides of protein N of SARS-CoV Urbani / Binding of serum London to looped/cyclic peptides of protein N of SARS-CoV Urbani / Binding of serum SARS-green to looped/cyclic peptides of protein N of SARS-CoV Urbani: unit not given here

SGFAAYNRYRIGNYK
Binding of Control Serum Blood-Bank to Looped peptides of the protein M of SARS-CoV Urbani [1]: 0.7 | Binding of Control serum Blood-bank to linear peptides of the protein M of SARS-CoV Urbani [1]: 0.6 | Binding of Control serum LUMC to linear peptides of the protein M of SARS-CoV Urbani [1]: 0.4 | Binding of Control serum LUMC to looped peptides of the protein M of SARS-CoV Urbani [1]: 0.8 | Rabbit serum linear peptides [2]: 1.2 | Rabbit serum looped peptides [2]: 1.6 | Binding of serum 1a to linear peptides of protein M of SARS-CoV Urbani [3]: 0.8 | Binding of serum 1a to looped/cyclic peptides of protein M of SARS-CoV Urbani [3]: 0.9 | Binding of serum 1b to linear peptides of protein M of SARS-CoV Urbani [3]: 0.4 | Binding of serum 1b to looped/cyclic peptides of protein M of SARS-CoV Urbani [3]: 0.6 | Binding of serum 2 to linear peptides of protein M of SARS-CoV Urbani [3]: 0.6 | Binding of serum 2 to looped/cyclic peptides of protein M of SARS-CoV Urbani [3]: 0.9 | Binding of serum 6 to linear peptides of protein M of SARS-CoV Urbani [3]: 0.8 | Binding of serum 6 to looped/cyclic peptides of protein M of SARS-CoV Urbani [3]: 1.4 | Binding of serum 37 to linear peptides of protein M of SARS-CoV Urbani [3]: 0.7 | Binding of serum 37 to looped/cyclic peptides of protein M of SARS-CoV Urbani [3]: 0.7 | Binding of serum 62 to linear peptides of protein M of SARS-CoV Urbani [3]: 0.8 | Binding of serum 62 to looped/cyclic peptides of protein M of SARS-CoV Urbani [3]: 0.7 | Binding of serum London to linear peptides of protein M of SARS-CoV Urbani [3]: 0.4 | Binding of serum London to looped/cyclic peptides of protein M of SARS-CoV Urbani [3]: 0.3 | Binding of serum SARS-green to linear peptides of protein M of SARS-CoV Urbani [3]: 0.3 | Binding of serum SARS-green to looped/cyclic peptides of protein M of SARS-CoV Urbani [3]: 0.2 | Binding of serum SARS-yellow to linear peptides of protein M of SARS-CoV Urbani [3]: 0.0 | Binding of serum SARS-yellow to looped/cyclic peptides of protein M of SARS-CoV Urbani [3]: 0.7

SHLLLVAAGMEAQFL
Binding of Control Serum Blood-Bank to Looped peptides [1]: 0.4 | Binding of Control serum Blood-bank to linear peptides [1]: 0.7 | Binding of Control serum LUMC to linear peptides [1]: 0.7 | Binding of Control serum LUMC to looped peptides [1]: 0.2 | Binding of a rabbit serum to linear peptides [2]: 0.5 | Binding of a rabbit serum to looped peptides [2]: 0.0 | Binding of serum 1a to linear peptides of protein X1 of SARS-CoV Urbani [3]: 0.8 | Binding of serum 1a to looped/cyclic peptide (PEPSCAN-ELISA) [3]: 0.2 | Binding of serum 1b to linear peptides of protein X1 of SARS-CoV Urbani [3]: 0.7 | Binding of serum 1b to looped/cyclic peptide (PEPSCAN-ELISA) [3]: 0.5 | Binding of serum 2 to linear peptides of protein X1 of SARS-CoV Urbani [3]: 0.7 | Binding of serum 2 to looped/cyclic peptide (PEPSCAN-ELISA) [3]: 0.1 | Binding of serum 6 to linear peptides of protein X1 of SARS-CoV Urbani [3]: 0.6 | Binding of serum 6 to looped/cyclic peptide (PEPSCAN-ELISA) [3]: 0.1 | Binding of serum 37 to linear peptides of protein X1 of SARS-CoV Urbani [3]: 0.8 | Binding of serum 37 to looped/cyclic peptide (PEPSCAN-ELISA) [3]: 0.1 | Binding of serum 62 to linear peptides of protein X1 of SARS-CoV Urbani [3]: 0.8 | Binding of serum 62 to looped/cyclic peptide (PEPSCAN-ELISA) [3]: 0.2 | Binding of serum London to linear peptides of protein X1 of SARS-CoV Urbani [3]: 0.3 | Binding of serum London to looped/cyclic peptide (PEPSCAN-ELISA) [3]: 0.1 | Binding of serum SARS-green to linear peptides of protein X1 of SARS-CoV Urbani [3]: 0.3 | Binding of serum SARS-green to looped/cyclic peptide (PEPSCAN-ELISA) [3]: 0.5 | Binding of serum SARS-yellow to linear peptides of protein X1 of SARS-CoV Urbani [3]: 0.7 | Binding of serum SARS-yellow to looped/cyclic peptide (PEPSCAN-ELISA) [3]: 0.0

SKNPLLYDANYFVCW
Binding of Control Serum Blood-Bank to Looped peptides [1]: 0.6 | Binding of Control serum Blood-bank to linear peptides [1]: 0.4 | Binding of Control serum LUMC to linear peptides [1]: 0.5 | Binding of Control serum LUMC to looped peptides [1]: 0.6 | Binding of a rabbit serum to linear peptides [2]: 0.1 | Binding of a rabbit serum to looped peptides [2]: 0.6 | Binding of serum 1a to linear peptides of protein X1 of SARS-CoV Urbani [3]: 0.7 | Binding of serum 1a to looped/cyclic peptide (PEPSCAN-ELISA) [3]: 0.6 | Binding of serum 1b to linear peptides of protein X1 of SARS-CoV Urbani [3]: 0.5 | Binding of serum 1b to looped/cyclic peptide (PEPSCAN-ELISA) [3]: 0.5 | Binding of serum 2 to linear peptides of protein X1 of SARS-CoV Urbani [3]: 0.4 | Binding of serum 2 to looped/cyclic peptide (PEPSCAN-ELISA) [3]: 0.5 | Binding of serum 6 to linear peptides of protein X1 of SARS-CoV Urbani [3]: 0.5 | Binding of serum 6 to looped/cyclic peptide (PEPSCAN-ELISA) [3]: 0.4 | Binding of serum 37 to linear peptides of protein X1 of SARS-CoV Urbani [3]: 0.5 | Binding of serum 37 to looped/cyclic peptide (PEPSCAN-ELISA) [3]: 0.6 | Binding of serum 62 to linear peptides of protein X1 of SARS-CoV Urbani [3]: 0.4 | Binding of serum 62 to looped/cyclic peptide (PEPSCAN-ELISA) [3]: 0.6 | Binding of serum London to linear peptides of protein X1 of SARS-CoV Urbani [3]: 0.2 | Binding of serum London to looped/cyclic peptide (PEPSCAN-ELISA) [3]: 0.2 | Binding of serum SARS-green to linear peptides of protein X1 of SARS-CoV Urbani [3]: 0.2 | Binding of serum SARS-green to looped/cyclic peptide (PEPSCAN-ELISA) [3]: 0.4 | Binding of serum SARS-yellow to linear peptides of protein X1 of SARS-CoV Urbani [3]: 0.4 | Binding of serum SARS-yellow to looped/cyclic peptide (PEPSCAN-ELISA) [3]: 0.5

SLHKLLQTLVLKMLH
Binding of Control Serum Blood-Bank to Looped peptides [1]: 0.7 | Binding of Control serum Blood-bank to linear peptides [1]: 0.6 | Binding of Control serum LUMC to linear peptides [1]: 0.3 | Binding of Control serum LUMC to looped peptides [1]: 0.7 | Binding of a rabbit serum to linear peptides [2]: 0.3 | Binding of a rabbit serum to looped peptides [2]: 0.5 | Binding of serum 1a to linear peptides of protein X2 [3]: 0.7 | Binding of serum 1a to looped/cyclic peptides of protein X2 of SARS-CoV Urbani [3]: 0.6 | Binding of serum 1b to linear peptides of protein X2 [3]: 0.5 | Binding of serum 1b to looped/cyclic peptides of protein X2 of SARS-CoV Urbani [3]: 0.5 | Binding of serum 2 to linear peptides of protein X2 [3]: 0.3 | Binding of serum 2 to looped/cyclic peptides of protein X2 of SARS-CoV Urbani [3]: 0.4 | Binding of serum 6 to linear peptides of protein X2 [3]: 0.3 | Binding of serum 6 to looped/cyclic peptides of protein X2 of SARS-CoV Urbani [3]: 0.3 | Binding of serum 37 to linear peptides of protein X2 [3]: 0.4 | Binding of serum 37 to looped/cyclic peptides of protein X2 of SARS-CoV Urbani [3]: 0.4 | Binding of serum 62 to linear peptides of protein X2 [3]: 0.6 | Binding of serum 62 to looped/cyclic peptides of protein X2 of SARS-CoV Urbani [3]: 0.7 | Binding of serum London to linear peptides of protein X2 [3]: 0.3 | Binding of serum London to looped/cyclic peptides of protein X2 of SARS-CoV Urbani [3]: 0.3 | Binding of serum SARS-green to linear peptides of protein X2 [3]: 0.4 | Binding of serum SARS-green to looped/cyclic peptides of protein X2 of SARS-CoV Urbani [3]: 0.3 | Binding of serum SARS-yellow to linear peptides of protein X2 [3]: 0.1 | Binding of serum SARS-yellow to looped/cyclic peptides of protein X2 of SARS-CoV Urbani [3]: 0.5
